18 molecules from patent US20240228481A1, “NOVEL SULFONAMIDE SERIES OF QR2 INHIBITORS TO TACKLE OXIDATIVE STRESS AND COGNITIVE DECLINE” (CARMEL HAIFA UNIVERSITY ECONOMIC CORPORATION LTD., priority 2021, published 2024) can be followed below.

The structures appear in SMILES notation.

Series [1] is described as follows: in vitro. The conditions noted are these: human.
Description: THLE-2 (CRL-2706™) were grown in the BEGM Bullet Kit (CC-3170) from Lonza. Besides the additives contained in the kit, the medium was further supplemented with 5 ng/mL EGF (Sigma), 70 ng/mL phosphoethanolamine (Sigma) and 10% FBS (Biological Industries). The plates for the THLE-2 needed to be pre-coated with a mixture of 0.01 mg/mL fibronectin, 0.05 mg/mL of PureCol™ EZ Gel Solution (Sigma) and 0.01 mg/mL of BSA dissolved in BEBM medium (Lonza). The coating medium was aspirated before seeding.
THLE-2 cells were exposed to the compounds in a 9-point, 2-fold dilution dose response series with a 100 μM as upper limit, for 72 h. Following the 72 h of exposure to the test compounds, cell viability was determined by measuring the concentration of cellular ATP (CellTiter Glo, Promega). The luminescence signal was measured on a Pherastar FS multi-mode plate reader (BMG Labtech). Each data point was tested in a triplicate.
First, toxicity was assessed in an ATP depletion assay, using THLE-2 cells following a 72 h exposure to a dose response of each of the tested compounds.
Series [2] concerns the target T1, QR1 (NQO1) (Homo sapiens, UniProt P15559).
T1 construct: purchased Sigma-Aldrich
Kind of series: Selectivity assay with QR1 in place of QR2, fluorescence readout. Format: biochemical. The procedure: (§1) The enzymatic activity of QR2 (10 nM) was measured using menadione (both Sigma-Aldrich) as substrate and dihydrobenzylnicotamide (BNAH; Tocris) as co-substrate (Boutin et al., 2005). The reaction was performed in 50 mM Tris HCl, 150 mM NaCl 0.01% Tween-20 pH=8.5 (Sigma-Aldrich) at room temperature. Briefly, 3 μL of menadione alone (200 μM) or a mixture of menadione and QR2 (200 μM of menadione and 10 nM of QR2) were dispensed in 1536-well black Nunc plates (Thermo-Fisher) using a Multidrop™ Combi Reagent Dispenser (Thermo-Fisher) and pre-incubated with compounds for 10 min. BNAH (200 μM) was then added (3 μL) to the reaction using a BioNex Solutions BNX 1536 plate washer and the plates were incubated for another 10 min. […] The initial HTS was done with approximately 200,000 compounds at a single concentration of 5 μM. The chemical libraries used were Selleck Chemicals Bioactives, the Drug-like set from Enamine, HitFinder collection from Maybridge, Spectrum Collection from Microsource, Lopac from Sigma-Aldrich and the diversity sets from ChemDiv and ChemBridge. Initial “hit” compounds were defined as causing >30% reduction of enzyme activity. Compounds suspected to be fluorescent were re-assayed in an absorbance assay at 350 nm using the same reaction but in a higher volume (100 μL), in a transparent plate (Greiner Bio-One). “Hit” compounds resulting from both the fluorescence and absorbance assay were tested in a dose-response, and median inhibition concentration (IC50) values were determined. In parallel, the same dose response was used in a selectivity assay where QR2 enzyme was replaced by QR1 (also known as—NQO1, 10 nM; Sigma-Aldrich).
(§2) In order to establish a varied, flexible and chemically amenable starting point from which to develop such inhibitors, the inventors ran a standardized QR2 assay (see methods) against ˜200,000 compounds, from a varied assortment of chemical libraries. […] Compounds that replicated the initial hit result were then assayed similarly, against NQO1, to evaluate compound specificity (FIG. 1B). From the HTS, a series of compounds containing a sulfonamide central linker, with an amine on one side and a heterocycle on the other, were identified and selected for SAR development (FIG. 1C).

Series [3] deals with T2, QR2 (Homo sapiens, UniProt P16083).
T2 sequence (P16083 1-231): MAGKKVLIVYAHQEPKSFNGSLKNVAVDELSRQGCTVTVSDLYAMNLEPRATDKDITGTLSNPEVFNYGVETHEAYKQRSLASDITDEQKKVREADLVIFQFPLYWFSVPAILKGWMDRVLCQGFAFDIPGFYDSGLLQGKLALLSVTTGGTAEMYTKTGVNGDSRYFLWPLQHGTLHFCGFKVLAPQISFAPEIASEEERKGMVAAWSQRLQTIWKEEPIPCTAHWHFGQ
Kind of series: QR2 enzymatic activity assay (menadione/BNAH), fluorescence readout. Also noted: purchased Sigma-Aldrich. Format: biochemical. The procedure:
(§3) The enzymatic activity of QR2 (10 nM) was measured using menadione (both Sigma-Aldrich) as substrate and dihydrobenzylnicotamide (BNAH; Tocris) as co-substrate (Boutin et al., 2005). The reaction was performed in 50 mM Tris HCl, 150 mM NaCl 0.01% Tween-20 pH=8.5 (Sigma-Aldrich) at room temperature. Briefly, 3 μL of menadione alone (200 μM) or a mixture of menadione and QR2 (200 μM of menadione and 10 nM of QR2) were dispensed in 1536-well black Nunc plates (Thermo-Fisher) using a Multidrop™ Combi Reagent Dispenser (Thermo-Fisher) and pre-incubated with compounds for 10 min. BNAH (200 μM) was then added (3 μL) to the reaction using a BioNex Solutions BNX 1536 plate washer and the plates were incubated for another 10 min. […] The initial HTS was done with approximately 200,000 compounds at a single concentration of 5 μM. The chemical libraries used were Selleck Chemicals Bioactives, the Drug-like set from Enamine, HitFinder collection from Maybridge, Spectrum Collection from Microsource, Lopac from Sigma-Aldrich and the diversity sets from ChemDiv and ChemBridge. Initial “hit” compounds were defined as causing >30% reduction of enzyme activity. […] “Hit” compounds resulting from both the fluorescence and absorbance assay were tested in a dose-response, and median inhibition concentration (IC50) values were determined. In parallel, the same dose response was used in a selectivity assay where QR2 enzyme was replaced by QR1 (also known as—NQO1, 10 nM; Sigma-Aldrich).
(§4) In order to establish a varied, flexible and chemically amenable starting point from which to develop such inhibitors, the inventors ran a standardized QR2 assay (see methods) against ˜200,000 compounds, from a varied assortment of chemical libraries.

Series [4] addresses T1, QR1 (NQO1). Briefly: Selectivity assay with QR1 in place of QR2, absorbance readout. Format: biochemical. The procedure:
as §1, §2

For series [5], the target named is T2, QR2. Briefly: QR2 enzymatic activity assay (menadione/BNAH), absorbance readout at 350 nm. Details: purchased Sigma-Aldrich. Format: biochemical. The procedure:
as §3, §4

T1 sequence (P15559 whole entry): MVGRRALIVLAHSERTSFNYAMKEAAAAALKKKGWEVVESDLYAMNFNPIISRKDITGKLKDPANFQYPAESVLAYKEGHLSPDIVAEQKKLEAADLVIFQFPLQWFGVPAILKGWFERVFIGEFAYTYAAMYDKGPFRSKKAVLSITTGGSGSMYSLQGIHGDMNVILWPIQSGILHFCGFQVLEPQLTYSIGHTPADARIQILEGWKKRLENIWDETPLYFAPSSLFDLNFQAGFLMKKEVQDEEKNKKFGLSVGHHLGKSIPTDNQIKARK

Take `Cc1ccn2cc(-c3cccc(S(=O)(=O)N4CCCC4)c3)nc2c1` [PCM-0124535]: in series [1], inhibition was half-maximal at 88.9 µM (IC50 at 72 h). For the same molecule, the IC50 (in general, the concentration at which inhibition is half-maximal) in series [2] was greater than 9.99 µM; in series [3] it was 0.59 µM; in series [4], greater than 9.99 µM; in series [5], 0.16 µM.

With `Cc1cccn2cc(-c3cccc(S(=O)(=O)N4CCCCCC4)c3)nc12` [PCM-0124812], the concentration for half-maximal inhibition (IC50) at 72 h in series [1] is 45.4 µM. The 50% inhibitory concentration (IC50) in series [2] is 5.83 µM; in series [3] it was 0.004 µM; in series [4], 7.24 µM; in series [5], 0.01 µM.

On to `Cc1cc(-c2ccc(C)c(S(=O)(=O)NCCCN3CCCC3=O)c2)on1` [PCM-0184891], for which the midpoint of inhibition in series [1], the IC50 at 72 h, lay at 219 µM. Moreover, the half-maximal inhibitory concentration (IC50) in series [2] was greater than 9.9 µM; in series [3] it was 3.26 µM; in series [4], greater than 9.99 µM; in series [5], 2.37 µM.

In turn, `Cc1cc(-c2ccc(C)c(S(=O)(=O)NCc3cccnc3)c2)on1` [PCM-0184959] registered an IC50 at 72 h in series [1] of 249 µM. Moreover, the IC50 is greater than 9.9 µM in series [2], 2.72 µM in series [3], greater than 9.99 µM in series [4] and 2.16 µM in series [5].

On to `Cc1cc(-c2ccc(C)c(S(=O)(=O)N3CCCCCC3)c2)on1` [PCM-0212385], for which, in series [1], the half-maximal inhibitory concentration (IC50) at 72 h came to 23.8 µM. For the same molecule, the IC50 was greater than 9.99 µM in series [2], 1.92 µM in series [3], greater than 9.99 µM in series [4] and 1.24 µM in series [5].

Consider `Cc1cc(-c2ccc(C)c(S(=O)(=O)N3CCCC3)c2)on1` [PCM-0212386], for which, in series [1], the IC50 at 72 h worked out at 65.1 µM. Also, the concentration for half-maximal inhibition (IC50) in series [2] is greater than 9.99 µM; in series [3] it was 0.42 µM; in series [4], greater than 9.99 µM; in series [5], 0.75 µM.

Consider `Cc1cc(-c2ccc(C)c(S(=O)(=O)N3CCC(C)CC3)c2)on1` [PCM-0212387], for which, in series [1], the half-maximal inhibitory concentration (IC50) at 72 h was found to be 50 µM. Also, the half-inhibitory concentration (IC50) in series [2] was greater than 9.99 µM; in series [3] it was 2.89 µM; in series [4], greater than 9.99 µM; in series [5], 1.83 µM.

Consider `Cc1cc(-c2ccc(C)c(S(=O)(=O)N3CCN(C(=O)c4ccco4)CC3)c2)on1` [PCM-0212388], for which the concentration for half-maximal inhibition (IC50) at 72 h in series [1] is 124 µM. Also, the concentration for half-maximal inhibition (IC50) in series [2] is greater than 9.99 µM; in series [3] it was 1.19 µM; in series [4], greater than 9.99 µM; in series [5], 1.25 µM.

`Cc1cc(-c2ccc(C)c(S(=O)(=O)N(C)C)c2)on1` [PCM-0212389] registered an IC50 at 72 h in series [1] of 215 µM. Besides, the IC50 in series [2] is greater than 9.99 µM; in series [3], 2.31 µM; in series [4] it was greater than 9.99 µM; in series [5] it was 1.71 µM.

For the molecule `Cc1cccn2cc(-c3cccc(S(=O)(=O)N4CCN(C(=O)c5ccco5)CC4)c3)nc12` [PCM-0213792], the concentration for half-maximal inhibition (IC50) at 72 h in series [1] turned out to be 64.1 µM. In addition, the IC50 in series [2] came to 3.33 µM; in series [3], 0.01 µM; in series [4], 4.22 µM; in series [5], 0.01 µM.

In series [1], `Cc1cccn2cc(-c3cccc(S(=O)(=O)N(C)C)c3)nc12` [PCM-0213804] had an IC50 at 72 h greater than 100 µM. For the same molecule, the half-maximal inhibitory concentration (IC50) in series [2] was greater than 9.99 µM; in series [3], 0.19 µM; in series [4], greater than 9.99 µM; in series [5] it was 0.02 µM.

For `Cc1ccn2cc(-c3cccc(S(=O)(=O)NCc4cccnc4)c3)nc2c1` [PCM-0213812], the half-inhibitory concentration (IC50) is greater than 9.99 µM in series [2], 9.62 µM in series [3], 8.6 µM in series [4] and 0.75 µM in series [5].

For the molecule `Cc1ccc(-c2nnc(-c3ccccc3)o2)cc1S(=O)(=O)NCc1cccnc1` [PCM-0213813], the IC50 in series [2] was greater than 9.99 µM; in series [3], 6.49 µM; in series [4], greater than 9.99 µM; in series [5] it was 1.17 µM.

Take `Cc1cccn2cc(-c3cccc(S(=O)(=O)NCc4cccnc4)c3)nc12` [PCM-0213814]: the 50% inhibitory concentration (IC50) at 72 h in series [1] was greater than 99 µM. The IC50 was greater than 9.99 µM in series [2], 0.02 µM in series [3], 7.18 µM in series [4] and 0.02 µM in series [5].

As for `Cc1cc(-c2ccc(C)c(S(=O)(=O)NCCCN3CCCC3=O)c2)n[nH]1` [PCM-0213815], the IC50 in series [2] is greater than 9.99 µM; in series [3] it was 0.93 µM; in series [4], greater than 9.99 µM; in series [5] it was 0.28 µM.

In the case of `Cc1ccn2cc(-c3cccc(S(=O)(=O)NCCCN4CCCC4=O)c3)nc2c1` [PCM-0213817], the IC50 in series [2] came to 5.28 µM; in series [3], 0.7 µM; in series [4], 3.44 µM; in series [5], 0.32 µM.

`Cc1ccc(-c2cn3cccc(C)c3n2)cc1S(=O)(=O)N1CCCCCC1` [PCM-0214338]: in series [1], the half-maximal inhibitory concentration (IC50) at 72 h was greater than 99 µM. Further, the IC50 in series [2] is greater than 9.99 µM; in series [3], 0.02 µM; in series [4] it was greater than 9.99 µM; in series [5], 0.03 µM.

As for `Cc1ccn2cc(-c3ccc(C)c(S(=O)(=O)N4CCC(C)CC4)c3)nc2c1` [PCM-0214339], the IC50 at 72 h in series [1] amounted to 59.4 µM. The results for the IC50 in series [3] and in series [5] were 3.96 µM and 4.49 µM, respectively.
